Where a name gives a salt, the structure may show the parent alone.

On to `CCc1c(-c2ccc(OC(F)F)c(OCC3CC3)c2)[nH]c2cn[nH]c(=O)c12` (as salt: HCl) [Example 37, 2-(3-Cyclopropylmethoxy-4-difluoromethoxyphenyl)-3-ethyl-1,5-dihydropyrrolo[2,3-d]pyridazin-4-one HCl adduct], for which the melting point (usually the temperature of the solid-liquid transition) fell in the range of 224 to 227 °C.
Turning to `Cc1c(-c2ccc(OC(F)F)c3c2C=CC(C)(C)O3)[nH]c2cn[nH]c(=O)c12` (as salt: HCl) [Example 53, 2-(8-Difluoromethoxy-2,2-dimethyl-2H-chromen-5-yl)-3-methyl-1,5-dihydropyrrolo[2,3-d]pyridazin-4-one HCl adduct], the melting point is greater than 300 °C.
The molecule `O=c1[nH]ncc2[nH]c(-c3ccc(OC(F)F)c(OC4CC4)c3)cc12` [Example 1, 2-(3-Cyclopropoxy-4-difluoromethoxyphenyl)-1,5-dihydropyrrolo[2,3-d]pyridazin-4-one] returned a melting point of 287 to 292 °C.
The same measure for `O=c1[nH]ncc2[nH]c(-c3ccc(OC(F)F)c(OC4CC4)c3)c(Cl)c12` [Example 2, 3-Chloro-2-(3-cyclopropoxy-4-difluoromethoxyphenyl)-1,5-dihydropyrrolo[2,3-d]pyridazin-4-one]: 281 to 283 °C; for `Cc1c(-c2ccc(OC(F)F)c(OC3CC3)c2)[nH]c2cn[nH]c(=O)c12` [Example 4, 2-(3-Cyclopropoxy-4-difluoromethoxyphenyl)-3-methyl-1,5-dihydropyrrolo[2,3-d]pyridazin-4-one]: 245 to 246 °C.
The same measure for `CCCc1c(-c2ccc(OC(F)F)c(OC3CC3)c2)[nH]c2cn[nH]c(=O)c12` [Example 6, 2-(3-Cyclopropoxy-4-difluoromethoxyphenyl)-3-propyl-1,5-dihydropyrrolo[2,3-d]pyridazin-4-one]: 208 to 210 °C; for `CC(C)c1c(-c2ccc(OC(F)F)c(OC3CC3)c2)[nH]c2cn[nH]c(=O)c12` [Example 7, 2-(3-Cyclopropoxy-4-difluoromethoxyphenyl)-3-isopropyl-1,5-dihydropyrrolo[2,3-d]pyridazin-4-one]: 265 to 267 °C; for `O=c1[nH]ncc2[nH]c(-c3ccc(OC(F)F)c(OC4CC4)c3)c(CO)c12` [Example 10, 2-(3-Cyclopropoxy-4-difluoromethoxyphenyl)-3-hydroxymethyl-1,5-dihydropyrrolo[2,3-d]pyridazin-4-one]: 190 to 191 °C.
`COCc1c(-c2ccc(OC(F)F)c(OC3CC3)c2)[nH]c2cn[nH]c(=O)c12` [Example 11, 2-(3-Cyclopropoxy-4-difluoromethoxyphenyl)-3-methoxymethyl-1,5-dihydropyrrolo[2,3-d]pyridazin-4-one] gave a melting point of 104 to 107 °C.
The same measure for `O=c1[nH]ncc2[nH]c(-c3ccc(OC(F)F)c(OC4CC4)c3)c(-c3ccccc3)c12` [Example 17, 2-(3-Cyclopropoxy-4-difluoromethoxyphenyl)-3-phenyl-1,5-dihydropyrrolo[2,3-d]pyridazin-4-one]: 138 to 143 °C; for `O=c1[nH]ncc2[nH]c(-c3ccc(OC(F)F)c(OC4CC4)c3)c(-c3cn[nH]c3)c12` [Example 18, 2-(3-Cyclopropoxy-4-difluoromethoxyphenyl)-3-(4-pyrazolyl)-1,5-dihydropyrrolo[2,3-d]pyridazin-4-one]: 294 to 297 °C; for `O=c1[nH]ncc2[nH]c(-c3ccc(OC(F)F)c(OC4CC4)c3)c(CCc3ccccc3)c12` [Example 21, 2-(3-Cyclopropoxy-4-difluoromethoxyphenyl)-3-phenethyl-1,5-dihydropyrrolo[2,3-d]pyridazin-4-one]: 199 to 201 °C.
The same measure for `O=c1[nH]ncc2[nH]c(-c3ccc(OC(F)F)c(OC4CC4)c3)c(Cc3cccc(F)c3)c12` [Example 23, 2-(3-Cyclopropoxy-4-difluoromethoxyphenyl)-3-(3-fluorobenzyl)-1,5-dihydropyrrolo[2,3-d]pyridazin-4-one]: 208 to 210 °C; for `O=c1[nH]ncc2[nH]c(-c3ccc(OC(F)F)c(OC4CC4)c3)c(Cc3ccc(F)cc3)c12` [Example 24, 2-(3-Cyclopropoxy-4-difluoromethoxyphenyl)-3-(4-fluorobenzyl)-1,5-dihydropyrrolo[2,3-d]pyridazin-4-one]: 193 to 195 °C; for `N#Cc1ccccc1Cc1c(-c2ccc(OC(F)F)c(OC3CC3)c2)[nH]c2cn[nH]c(=O)c12` [Example 25, 3-(2-Cyanobenzyl)-2-(3-cyclopropoxy-4-difluoromethoxyphenyl)-1,5-dihydropyrrolo[2,3-d]pyridazin-4-one]: greater than 300 °C.
On to `N#Cc1cccc(Cc2c(-c3ccc(OC(F)F)c(OC4CC4)c3)[nH]c3cn[nH]c(=O)c23)c1` [Example 26, 3-(3-Cyanobenzyl)-2-(3-cyclopropoxy-4-difluoromethoxyphenyl)-1,5-dihydropyrrolo[2,3-d]pyridazin-4-one], for which the melting point was 130 to 135 °C.
The same measure for `O=C(O)c1cccc(Cc2c(-c3ccc(OC(F)F)c(OC4CC4)c3)[nH]c3cn[nH]c(=O)c23)c1` [Example 27, 3-(3-Carboxybenzyl)-2-(3-cyclopropoxy-4-difluoromethoxyphenyl)-1,5-dihydropyrrolo[2,3-d]pyridazin-4-one]: 155 to 163 °C.
The same measure for `COc1cccc(Cc2c(-c3ccc(OC(F)F)c(OC4CC4)c3)[nH]c3cn[nH]c(=O)c23)n1` [Example 28, 2-(3-Cyclopropoxy-4-difluoromethoxyphenyl)-3-(6-methoxy-2-pyridylmethyl)-1,5-dihydropyrrolo[2,3-d]pyridazin-4-one]: 224 to 226 °C; for `O=c1[nH]ncc2[nH]c(-c3ccc(OC(F)F)c(OC4CCC4)c3)c(Cl)c12` [Example 32, 3-Chloro-2-(3-cyclobutoxy-4-difluoromethoxyphenyl)-1,5-dihydropyrrolo[2,3-d]pyridazin-4-one]: 273 to 275 °C.
The same measure for `O=c1[nH]ncc2[nH]c(-c3ccc(OC(F)F)c(OCC4CC4)c3)cc12` [Example 35, 2-(3-Cyclopropylmethoxy-4-difluoromethoxyphenyl)-1,5-dihydropyrrolo[2,3-d]pyridazin-4-one]: 294 to 295 °C; for `CC(C)Oc1cc(-c2cc3c(=O)[nH]ncc3[nH]2)ccc1OC(F)F` [Example 39, 2-(4-Difluoromethoxy-3-isopropoxyphenyl)-1,5-dihydropyrrolo[2,3-d]pyridazin-4-one]: 269 to 273 °C.
Regarding `CC(C)Oc1cc(-c2[nH]c3cn[nH]c(=O)c3c2Cl)ccc1OC(F)F` [Example 40, 3-Chloro-2-(4-difluoromethoxy-3-isopropoxyphenyl)-1,5-dihydropyrrolo[2,3-d]pyridazin-4-one], the melting point is 248 to 262 °C.
Molecule `COc1ccc(-c2[nH]c3cn[nH]c(=O)c3c2Cl)cc1OC1CC1` [Example 42, 3-Chloro-2-(3-cyclopropoxy-4-methoxyphenyl)-1,5-dihydropyrrolo[2,3-d]pyridazin-4-one] displayed a melting point of 293 to 294 °C.
As to `COc1ccc(-c2[nH]c3cn[nH]c(=O)c3c2Br)cc1OC1CC1` [Example 43, 3-Bromo-2-(3-cyclopropoxy-4-methoxyphenyl)-1,5-dihydropyrrolo[2,3-d]pyridazin-4-one], the melting point was 293 to 296 °C (dec.).
As to `COc1ccc(-c2[nH]c3cn[nH]c(=O)c3c2Cl)cc1OC1CCC1` [Example 45, 3-Chloro-2-(3-cyclobutoxy-4-methoxyphenyl)-1,5-dihydropyrrolo[2,3-d]pyridazin-4-one], the melting point lay within 285 to 287 °C.
In the case of `COc1ccc(-c2cc3c(=O)[nH]ncc3[nH]2)cc1OC1CCCC1` [Example 46, 2-(3-Cyclopentoxy-4-methoxyphenyl)-1,5-dihydropyrrolo[2,3-d]pyridazin-4-one] it was 290 °C (dec.); in that of `COc1ccc(-c2[nH]c3cn[nH]c(=O)c3c2Cl)cc1OCC1CC1` [Example 47, 3-Chloro-2-(3-cyclopropylmethoxy-4-methoxyphenyl)-1,5-dihydropyrrolo[2,3-d]pyridazin-4-one], 256 to 258 °C; in that of `COc1ccc(-c2[nH]c3cn[nH]c(=O)c3c2Cl)cc1OC(C)C` [Example 48, 3-Chloro-2-(3-isopropoxy-4-methoxyphenyl)-1,5-dihydropyrrolo[2,3-d]pyridazin-4-one], 291 to 299 °C.
In the case of `O=c1[nH]ncc2[nH]c(-c3ccc(OC(F)F)c(OC4CC4)c3)c(COCC3CC3)c12` [Example 59, 2-(3-Cyclopropoxy-4-difluoromethoxyphenyl)-3-cyclopropylmethoxymethyl-1,5-dihydropyrrolo[2,3-d]pyridazin-4-one] it was 170 to 172 °C.
In the case of `CCC(C)OCc1c(-c2ccc(OC(F)F)c(OC3CC3)c2)[nH]c2cn[nH]c(=O)c12` (stereo not shown) [Example 63, 3-(sec-Butoxymethyl)-2-(3-cyclopropoxy-4-difluoromethoxyphenyl)-1,5-dihydropyrrolo[2,3-d]pyridazin-4-one] it was 103 to 106 °C; in that of `CC(C)(C)OCc1c(-c2ccc(OC(F)F)c(OC3CC3)c2)[nH]c2cn[nH]c(=O)c12` [Example 64, 3-(tert-Butoxymethyl)-2-(3-cyclopropoxy-4-difluoromethoxyphenyl)-1,5-dihydropyrrolo[2,3-d]pyridazin-4-one], greater than 300 °C; in that of `CCC(CC)OCc1c(-c2ccc(OC(F)F)c(OC3CC3)c2)[nH]c2cn[nH]c(=O)c12` [Example 65, 2-(3-Cyclopropoxy-4-difluoromethoxyphenyl)-3-(1-ethylpropoxymethyl)-1,5-dihydropyrrolo[2,3-d]pyridazin-4-one], 133 to 162 °C.
`CCCCCc1c(-c2ccc(OC(F)F)c(OC3CC3)c2)[nH]c2cn[nH]c(=O)c12` [Example 68, 2-(3-Cyclopropoxy-4-difluoromethoxyphenyl)-3-pentyl-1,5-dihydropyrrolo[2,3-d]pyridazin-4-one] showed a melting point of 191 to 193 °C.
In the case of `O=c1[nH]ncc2[nH]c(-c3ccc(OC(F)F)c(OC4CC4)c3)c(CCC3CC3)c12` [Example 70, 2-(3-cyclopropoxy-4-difluoromethoxyphenyl)-3-(2-cyclopropylethyl)-1,5-dihydropyrrolo[2,3-d]pyridazin-4-one] it was 194 to 197 °C.

Source of the values: patent publication US8450319B2, “Pyrrolopyridazinone compound” (Ube Industries, Ltd., priority 2006, dated 2013).
